Values of other authors as cited in patent publication US20170368135A1, “HERBAL DRUG COMPOSITION CONTAINING PROBIOTIC AND OPTIONALLY PREBIOTIC AND/OR ACTIVE PHARMACEUTICAL INGREDIENT” (VITALIVA, LLC, priority 2016, published 2017).

Experiments:
[1] = system: alcoholic liver disease; conditions: in vivo
[2] = system: NF-κB in Kupffer cells

## COc1cc(/C=C/C(=O)CC(=O)/C=C/c2ccc(O)c(OC)c2)ccc1O [Curcumin]
[1]
  physiological changes induced by alcohol: dietary spice turmeric, shows that curcimin administration prevented
[2]
  endotoxin-mediated activation of NF-κB: phsyciological changes induced by alcohol. Curcumin blocks
[2]; Kupffer cells
  expression of cytokines, chemokines, COX-2, and iNOS: endotoxin-mediated activation of NF-κB and suppresses the expression
